What was measured:
Pgp = target: T1, Pgp (Mus musculus, UniProt P21447); experiment: Thermostability of purified Pgp in detergent solution (CPM dye fluorescence on heating); details: Pgp purified in 0.05% DDM containing 0.01% CHS (DDM/CHS); Pgp in DDM alone ~40 °C
T1 construct: made in house; host or cells: Pichia pastoris
Experimental: Figure S1: CHS increases the thermostability of purified Pgp in DDM detergent solution.
Pgp was purified from microsomal membranes as detailed in Methods in either 0.05% DDM or 0.05% DDM containing 0.01% CHS (DDM/CHS). Samples were incubated with 2 µM of the cysteine-reactive dye 7-Diethylamino-3-(4'-maleimidylphenyl)-4-methylcoumarin (CPM), and the increase in fluorescence upon heating the samples with a temperature ramp of 1 °C/min was monitored with excitation/ emission wavelengths of 384/470 nm. Increase in fluorescence is due to protein unfolding and exposure of reactive cysteines in Pgp. The melting temperature Tm was ~40 °C for Pgp in DDM solution, similar to that reported for Pgp by other methods (Yang et al., […]
2017). […] Representatives of three independent experiments are shown.
(1 picture or pasted object on this page, not shown here)

Mouse mdr1a Pgp = target: T2, Mouse mdr1a Pgp (Mus musculus, UniProt P21447); experiment: Verapamil-stimulated ATPase activity of purified Pgp in DDM detergent activated with lipids (detergent-lipid micelles); format: biochemical; details: ATPase in the absence of verapamil; Pgp in DDM activated with 1% of the named lipid (Table 2)
T2 construct: made in house; host or cells: Pichia pastoris
T2 sequence (P21447 whole entry): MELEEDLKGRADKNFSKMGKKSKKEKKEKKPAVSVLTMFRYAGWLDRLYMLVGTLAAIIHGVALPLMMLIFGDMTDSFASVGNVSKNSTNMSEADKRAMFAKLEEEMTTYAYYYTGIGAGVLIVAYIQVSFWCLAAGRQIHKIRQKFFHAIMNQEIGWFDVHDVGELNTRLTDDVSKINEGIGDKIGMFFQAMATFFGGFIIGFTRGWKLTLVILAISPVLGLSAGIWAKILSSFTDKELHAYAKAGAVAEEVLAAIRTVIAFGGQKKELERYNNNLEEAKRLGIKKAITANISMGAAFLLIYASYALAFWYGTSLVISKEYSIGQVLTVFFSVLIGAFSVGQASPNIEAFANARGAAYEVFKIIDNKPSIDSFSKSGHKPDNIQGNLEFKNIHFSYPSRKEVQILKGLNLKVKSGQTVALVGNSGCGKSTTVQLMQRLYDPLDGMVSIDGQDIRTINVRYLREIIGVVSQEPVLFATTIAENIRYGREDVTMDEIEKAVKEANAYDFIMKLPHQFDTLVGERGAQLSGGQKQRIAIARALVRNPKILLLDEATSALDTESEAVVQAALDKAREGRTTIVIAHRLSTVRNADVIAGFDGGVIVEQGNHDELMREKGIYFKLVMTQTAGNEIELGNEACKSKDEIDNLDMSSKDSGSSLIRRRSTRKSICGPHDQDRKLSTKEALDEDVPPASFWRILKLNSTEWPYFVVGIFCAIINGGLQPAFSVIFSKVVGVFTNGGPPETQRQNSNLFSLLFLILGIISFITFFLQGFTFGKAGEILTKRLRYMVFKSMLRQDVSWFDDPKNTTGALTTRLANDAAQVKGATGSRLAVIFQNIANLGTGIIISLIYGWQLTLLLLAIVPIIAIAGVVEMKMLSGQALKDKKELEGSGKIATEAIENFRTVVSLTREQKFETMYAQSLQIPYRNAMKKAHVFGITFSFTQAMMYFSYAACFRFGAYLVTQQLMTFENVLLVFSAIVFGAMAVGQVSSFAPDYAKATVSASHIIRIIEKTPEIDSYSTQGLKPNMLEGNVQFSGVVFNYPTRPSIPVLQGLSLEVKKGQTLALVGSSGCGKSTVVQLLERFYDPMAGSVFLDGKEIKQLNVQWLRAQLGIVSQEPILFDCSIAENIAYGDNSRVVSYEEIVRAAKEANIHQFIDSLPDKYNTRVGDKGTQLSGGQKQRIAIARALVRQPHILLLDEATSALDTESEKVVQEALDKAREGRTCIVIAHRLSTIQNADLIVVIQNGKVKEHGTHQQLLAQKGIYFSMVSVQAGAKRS
Experimental: All purification buffers contained 50 mM Tris pH 8, 10% glycerol, and 500 mM NaCl (Buffer A). Detergent concentrations were reduced to 0.05% DDM during chromatography. Pgp was eluted from the Strep-Tactin superflow resin (Qiagen, Valencia, CA) in the presence of 1 mM DTT, 1 mM TCEP by competition with 4 mM desthiobiotin.

T1 sequence (P21447 whole entry): as above

Row | SMILES | melting temperature Tm of Pgp (Pgp) | Basal activity (Mouse mdr1a Pgp) [µmol/min/mg]
1 | CC(C)CCC[C@@H](C)[C@H]1CC[C@H]2[C@@H]3CC=C4C[C@@H](OC(=O)CCC(=O)O)CC[C@]4(C)[C@H]3CC[C@]12C [CHS, cholesteryl hemisuccinate] | 52 ºC | –
2 | CCCCCCCC/C=C\CCCCCCCC(=O)O[C@H](COC(=O)CCCCCCCCCCCCCCC)COP(=O)([O-])OCC[N+](C)(C)C [POPC only, 1-palmitoyl-2-oleoyl-sn-glycero-3-phosphocholine] | – | 0.05

From PMC9995911, “Lipid environment determines the drug-stimulated ATPase activity of P-glycoprotein” (Frontiers in Molecular Biosciences, 2023)
